# Reference: patent US20240408082A1, “METHODS FOR TREATING CANCERS AND TUMORS” (BEYONDSPRING PHARMACEUTICALS, INC., priority 2021, published 2024)
# Where “and” joins values, the source holds several entries; their conditions need not be identical. Equal entries are not always repeated.
# How the values were obtained:
# Assay type in all cases: cell-based
# SXFS 627 = assay: 3D clonogenic assay, Example 1, SXFS 627; conditions: model SXFS 627
# Protocol: (§1) In the present study, plinabulin was characterized for its ability to inhibit anchorage independent growth and ex vivo colony formation of tumor cells in semi-solid medium. The compound was investigated in 87 out of 93 originally planned tumor xenografts representing all major cancer types using a 3D clonogenic assay in a 96-well format with colony count based on image analysis as read-out. By using this assay, the investigational compound was assessed for the ability to inhibit anchorage independent growth and ex vivo colony formation of tumor cells in semi-solid medium.
# (§2) A master stock solution of plinabulin was prepared by dissolving the compound in DMSO at a concentration of 9.9 mM. Working stock solutions were prepared by diluting the master stock solution with DMSO to a concentration of 0.99 mM (330-fold the highest test concentration). Small aliquots of the master and working stock were stored at −20° C. […]
# (§3) Plinabulin was investigated in 87 PDX models representing a number of cancer types. […] The percentage of viable cells was determined in a Neubauer-hemocytometer using trypan blue exclusion. […]
# (§4) The clonogenic assay was carried out in a 96 well plate format using ultra low attachment plates. […] Cultures were incubated at 37° C. and 7.5% CO2 in a humidified atmosphere 13 days in total and monitored closely for colony growth using an inverted microscope. […]
# BXF 2775 = assay: 3D clonogenic assay, Example 1, BXF 2775; conditions: model BXF 2775
# Protocol: as §1, §2, §3, §4
# bladder cancer models = assay: 3D clonogenic assay, Example 2, bladder cancer models; conditions: n=6 models
# Protocol: (§5) The present study investigated plinabulin for anticancer activity ex vivo in 68 out of 71 originally planned patient-derived xenograft (PDX) models representing major cancer types. Experiments were performed using a 3D clonogenic assay in a 96-well format with colony count based on image analysis as a read-out. By using this assay, the investigational compound was assessed for the ability to inhibit anchorage independent growth and ex vivo colony formation of tumor cells in semi-solid medium.
# as §2
# (§6) Plinabulin was investigated in 68 PDX models representing a number of cancer types. […] The percentage of viable cells was determined in a Neubauer-hemocytometer using trypan blue exclusion. […]
# as §4
# soft tissue sarcoma = assay: 3D clonogenic assay, Example 1, soft tissue sarcoma; conditions: n=10 models
# Protocol: as §1, §2, §3, §4
# [1] = system: osteosarcoma model SXFO 1186; assay: 3D clonogenic assay, Example 2, SXFO 1186
# Protocol: as §5, §2, §6, §4
# [2] = system: 68 PDX models of various histotypes; assay: 3D clonogenic assay, Example 2, all PDX models
# Protocol: as §5
# (§7) A master stock solution of plinabulin was prepared by dissolving the compound in DMSO at a concentration of 9.9 mM. Working stock solutions were prepared by diluting the master stock solution with DMSO to a concentration of 0.99 mM (330-fold the highest test concentration). Small aliquots of the master and working stock were stored at −20° C. On each day of an experiment, an aliquot of the working stock was used and stored at room temperature prior to and during treatment. All liquid handling steps were performed using a Tecan Freedom EVO 200 robotic platform. First, serial dilutions of the working stock solution were done in DMSO. The DMSO dilutions were then diluted 1:22 into the cell culture medium (IMDM, supplemented with 20% (v/v) fetal calf serum, and 50 μg/ml gentamicin) in an intermediate dilution plate. Finally, 10 μl taken from the intermediate dilution plate were transferred to 140 μl/well of the final assay plate. Thus, the DMSO working stock was diluted at 1:330, and the DMSO concentration in the assay was 0.3% v/v in all wells.
# (§8) Plinabulin was investigated in 68 PDX models representing a number of cancer types. Tumors were passaged as subcutaneous xenografts in NMRI nu/nu mice. At a tumor volume of 400-1000 mm^3 tumor-bearing mice were euthanized and tumors were collected under sterile conditions without delay according to relevant SOPs and the relevant animal welfare guidelines published by the FELASA and the GV-SOLAS. Tumors were mechanically disaggregated and subsequently incubated with an enzyme cocktail consisting of collagenase type IV (41 U/ml), DNase I (125 U/ml), hyaluronidase type III (100 U/ml), and dispase II (1 U/ml) in RPMI 1640 medium (Life Technologies) at 37° C. for 60-120 minutes. Cells were passed through sieves of 100 μm and 40 μm mesh size (Cell Strainer, BD Falcon™), and washed with RPMI 1640 medium (Biochrom). The percentage of viable cells was determined in a Neubauer-hemocytometer using trypan blue exclusion. Aliquots of the cells were frozen down and stored in a liquid nitrogen vapor phase. On each day of an experiment, a frozen aliquot of tumor cells was thawed and used for the preparation of assay plates.
# (§9) The clonogenic assay was carried out in a 96 well plate format using ultra low attachment plates. For each test, cells were prepared as described above (Section 6.6) and assay plates were prepared as follows: each test well contained a layer of semi-solid medium with tumor cells (50 μl), and a second layer of medium supernatant with or without test compound (100 μl). The cell layer consisted of 2.5-12.5·10^3 tumor cells per well, which were seeded on day 0 (d0) in 50 μl/well cell culture medium (IMDM, supplemented with 20% (v/v) fetal calf serum, 50 μg/ml gentamicin, and 0.4% (w/v) agar). After 24 h, the soft-agar layer was covered with 90 μl of the same culture medium without agar. Seven days after seeding 10 μl of test compound or control medium was added, and left on the cells for 24 h. Every 96 well plate included six DMSO-treated control wells and drug-treated wells in duplicate at 9 concentrations. After the incubation time of 24 h the supernatant (90 μl medium without agar +10 μl compound/control) was changed against drug free medium and incubated until the end of the study. Cultures were incubated at 37° C. and 7.5% CO2 in a humidified atmosphere 13 days in total and monitored closely for colony growth using an inverted microscope. […]
# [3] = system: Triple negative breast cancer (MAXFTN); assay: 3D clonogenic assay, Example 2, triple negative breast cancer; conditions: based on IC70, FIG. 7
# Protocol: as §5, §2, §6, §4
# [4] = system: Her2-enriched breast cancer models; assay: 3D clonogenic assay, Example 2, Her2-enriched breast cancer models; conditions: n=6 models
# Protocol: as §5, §2, §6, §4
# [5] = system: soft tissue sarcoma models; assay: 3D clonogenic assay, Example 2, soft tissue sarcoma models; conditions: n=8 models
# Protocol: as §5, §2, §6, §4
# [6] = system: small cell lung cancer model LXFS 2156; assay: 3D clonogenic assay, Example 2, LXFS 2156
# Protocol: as §5, §2, §6, §4
# osteosarcoma = assay: 3D clonogenic assay, Example 2, osteosarcoma; conditions: n=3 models
# Protocol: as §5, §2, §6, §4
# [7] = system: small cell lung cancer model LXFS 650; assay: 3D clonogenic assay, Example 2, LXFS 650
# Protocol: as §5, §2, §6, §4
# [8] = system: central nervous system cancer; assay: 3D clonogenic assay, Example 2, central nervous system cancer; conditions: n=6 models
# Protocol: as §5, §2, §6, §4
# BXF 1258 = assay: 3D clonogenic assay, Example 1, BXF 1258; conditions: model BXF 1258
# Protocol: as §1, §2, §3, §4
# [9] = system: gastric cancer models (Caucasian); assay: 3D clonogenic assay, Example 2, gastric cancer models (Caucasian); conditions: n=3 models
# Protocol: as §5, §2, §6, §4
# [10] = system: 87 PDX models of various histotypes; assay: 3D clonogenic assay, Example 1, all PDX models
# Protocol: as §1
# as §7, with “into” for “into the”, “diluted” for “diluted at”
# as §8, with “87” for “68”
# as §9, with “above” for “above (Section 6.6)”, “2.5-12.5×10^3” for “2.5-12.5·10^3”
# BXF 2211 = assay: 3D clonogenic assay, Example 1, BXF 2211; conditions: model BXF 2211
# Protocol: as §1, §2, §3, §4
# small cell lung cancer [11] = assay: 3D clonogenic assay, Example 2, small cell lung cancer; conditions: n=7 models
# Protocol: as §5, §2, §6, §4
# melanoma models [12] = assay: 3D clonogenic assay, Example 2, melanoma models; conditions: n=9 models
# Protocol: as §5, §2, §6, §4
# [13] = system: (Asian) gastric cancer model GXA 3067; assay: 3D clonogenic assay, Example 2, GXA 3067; conditions: read-out: abs. IC50
# Protocol: as §5, §2, §6, §4
# melanoma models [14] = assay: 3D clonogenic assay, Example 1, melanoma models; conditions: n=19 models
# Protocol: as §1, §2, §3, §4
# [15] = system: small cell lung cancer model LXFS 1129; assay: 3D clonogenic assay, Example 2, LXFS 1129
# Protocol: as §5, §2, §6, §4
# bladder cancer = assay: 3D clonogenic assay, Example 1, bladder cancer; conditions: n=9 models
# Protocol: as §1, §2, §3, §4
# small cell lung cancer [16] = assay: 3D clonogenic assay, Example 1, small cell lung cancer; conditions: n=7 models
# Protocol: as §1, §2, §3, §4
# gastric cancer (Asian) = assay: 3D clonogenic assay, Example 2, gastric cancer (Asian); conditions: n=3 models
# Protocol: as §5, §2, §6, §4
# [17] = sigmoidal concentration-effect curves
smiles,measurement,setting,value
"CC(C)(C)c1[nH]cnc1/C=c1\[nH]c(=O)/c(=C/c2ccccc2)[nH]c1=O [plinabulin, (3Z,6Z)-3-Benzylidene-6-{[5-(2-methyl-2-propanyl)-1H-imidazol-4-yl]methylene}-2,5-piperazinedione]",absolute IC70,SXFS 627,3 nM
same,absolute IC70,BXF 2775,3 nM
same,geometric mean absolute IC70,bladder cancer models,> 3000 nM
same,geom. mean absolute IC70,soft tissue sarcoma,57 nM
same,abs. IC70,[1],27 nM
same,IC50,[1]; read-out: abs. IC50,19 nM
same,"Sensitive Tumors, Number, Based on Abs. IC70",[2]; 68 PDX models,9 out of 68 and 9/68
same,"Sensitive Tumors, Number, Based on Rel. IC70",[2]; 68 PDX models,27/68
same,"Sensitive Tumors, Percentage, Based on Abs. IC50",[2]; 68 PDX models,35%
same,"Sensitive Tumors, Percentage, Based on Abs. IC70",[2]; 68 PDX models,13%
same,"Sensitive Tumors, Percentage, Based on Rel. IC50",[2]; 68 PDX models,50%
same,"Sensitive Tumors, Percentage, Based on Rel. IC70",[2]; 68 PDX models,40%
same,"geometric mean absolute IC70, tumor colony formation","[2]; all 68 PDX models, treatment from day 7 to day 8",1780 nM
same,IC50,"[2]; all 68 PDX models, treatment from day 7 to day 8, read-out: geometric mean absolute IC50, tumor colony formation",600 nM
same,"Fold difference of IC50 of sensitive tumors vs. all tumors, Based on Abs. IC50",[2]; geometric means,10.7 fold
same,"Fold difference of IC50 of sensitive tumors vs. all tumors, Based on Rel. IC50",[2]; geometric means,3.4 fold
same,"Fold difference of IC70 of sensitive tumors vs. all tumors, Based on Abs. IC70",[2]; geometric means,27.1 fold
same,"Fold difference of IC70 of sensitive tumors vs. all tumors, Based on Rel. IC70",[2]; geometric means,4.6 fold
same,inhibition of tumor colony formation (in words),[2]; [17],inhibited tumor colony formation in a concentration-dependent manner in almost all cell lines
same,sensitivity to plinabulin (in words),[3],sensitive
same,geometric mean absolute IC70,[4],> 3000 nM
same,IC50,[4]; read-out: geom. mean abs. IC50,2250 nM
same,geometric mean absolute IC70,[5],> 3000 nM
same,IC50,[5]; read-out: geom. mean abs. IC50,2580 nM
same,abs. IC70,[6],15 nM
same,IC50,[6]; read-out: abs. IC50,7 nM
same,geom. mean abs. IC70,osteosarcoma,624 nM
same,IC50,osteosarcoma; read-out: geom. mean abs. IC50,117 nM
same,abs. IC70,[7],32 nM
same,IC50,[7]; read-out: abs. IC50,22 nM
same,geom. mean abs. IC70,[8],1521 nM
same,IC50,[8]; read-out: geom. mean abs. IC50,426 nM
same,absolute IC70,BXF 1258,3 nM
same,geometric mean absolute IC70,[9],> 3000 nM
same,"Sensitive Tumors, Number, Based on Abs. IC70",[10]; 87 PDX models,40 out of 87 and 40/87
same,"Sensitive Tumors, Number, Based on Rel. IC70",[10]; 87 PDX models,23/87
same,"Sensitive Tumors, Percentage, Based on Abs. IC70",[10]; 87 PDX models,46%
same,"Sensitive Tumors, Percentage, Based on Rel. IC70",[10]; 87 PDX models,26%
same,"geometric mean absolute IC70, tumor colony formation","[10]; all 87 PDX models, 24 h treatment, 13 days culture",166 nM
same,"Fold difference of IC70 of sensitive tumors vs. all tumors, Based on Abs. IC70",[10]; geometric means,6.8 fold
same,"Fold difference of IC70 of sensitive tumors vs. all tumors, Based on Rel. IC70",[10]; geometric means,4.6 fold
same,inhibition of tumor colony formation (in words),[10]; [17],inhibited tumor colony formation in a concentration-dependent manner in almost all cell lines
same,absolute IC70,BXF 2211,3 nM
same,geom. mean abs. IC70,small cell lung cancer [11],385 nM
same,IC50,small cell lung cancer [11]; read-out: geom. mean abs. IC50,74 nM
same,geometric mean absolute IC70,melanoma models [12],> 3000 nM
same,IC50,melanoma models [12]; read-out: geom. mean abs. IC50,1370 nM
same,IC50,[13],26 nM
same,geometric mean absolute IC70,melanoma models [14],1105 nM
same,abs. IC70,[15],32 nM
same,geom. mean absolute IC70,bladder cancer,38 nM
same,geom. mean absolute IC70,small cell lung cancer [16],35 nM
same,geom. mean abs. IC70,gastric cancer (Asian),319 nM
same,IC50,gastric cancer (Asian); read-out: geom. mean abs. IC50,166 nM
